In the supplement of paper PMC10307832:

How the values were obtained:
Assay in all cases: relative viability (nuclei count vs DMSO), 5 days (fraction); higher = more cells survive
[1] = compound: CC1=CC(=C(N1C2=CC=C(C=C2)Cl)C)C(=O)CN3CCCCC3 [IU1-47] + CCNC(=O)c1noc(-c2cc(C(C)C)c(O)cc2O)c1-c1ccc(CN2CCOCC2)cc1 [Luminespib] (partner 0.01 µM)
In short: (§1)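 After 5 days of treatment, lung cancer cells in 1536-well plates were fixed and stained in a single step (final 0.05% Triton X-100, 1% formaldehyde, 1 ug/ml Hoechst) and their nuclei counted on 4× images. Treatment had been applied by pin tool the day after seeding as one drug alone or as a fixed anchor-drug dose with five library-drug doses (not always all listed) in √10 steps. Relative viability is the nuclei count of treated wells divided by that of vehicle wells, and values are medians of duplicate plates.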

[2] = compound: CC1=CC(=C(N1C2=CC=C(C=C2)Cl)C)C(=O)CN3CCCCC3 [IU1-47] + O=C(c1cc(Cc2n[nH]c(=O)c3ccccc23)ccc1F)N1CCN(C(=O)C2CC2)CC1 [Olaparib] (partner 8 µM)
In short: as §1

[3] = compound: Cc1nc(C(=O)NCC(=O)O)c(O)c2ccc(Oc3ccccc3)cc12 [FG-4592] + CS(=O)(=O)N1CCN(Cc2cc3nc(-c4cccc5[nH]ncc45)nc(N4CCOCC4)c3s2)CC1 [Pictilisib] (partner 1 µM)
In short: as §1

[4] = compound: Cc1nc(C(=O)NCC(=O)O)c(O)c2ccc(Oc3ccccc3)cc12 [FG-4592] + NC(=O)Nc1cc(-c2cccc(F)c2)sc1C(=O)N[C@H]1CCCNC1 [AZD7762] (partner 0.2 µM)
In short: as §1

Cell Line	relative viability ([1]; first compound 0.08 µM)	relative viability ([1]; first compound 0.253 µM)	relative viability ([1]; first compound 0.8 µM)	relative viability ([1]; first compound 2.53 µM)	relative viability ([1]; first compound 8 µM)	relative viability ([2]; first compound 0.08 µM)	relative viability ([2]; first compound 0.253 µM)	relative viability ([2]; first compound 0.8 µM)	relative viability ([2]; first compound 2.53 µM)	relative viability ([2]; first compound 8 µM)	relative viability ([3]; first compound 0.08 µM)	relative viability ([3]; first compound 0.253 µM)	relative viability ([3]; first compound 0.8 µM)	relative viability ([3]; first compound 2.53 µM)	relative viability ([3]; first compound 8 µM)	relative viability ([4]; first compound 0.08 µM)	relative viability ([4]; first compound 0.253 µM)	relative viability ([4]; first compound 2.53 µM)	relative viability ([4]; first compound 8 µM)	relative viability ([4]; first compound 0.8 µM)
NCI-H1650	0.169	0.201	0.18	0.175	0.221	0.756	0.797	0.736	0.968	0.797	0.428	0.549	0.44	0.586	0.617					
NCI-H2009	1.09	1.04	0.986	1.01	1.05	0.662	0.678	0.612	0.804	0.65	0.718	0.653	0.647	0.671	0.749					
NCI-H1648						1.16	1.17	0.813	0.656	0.577						0.622	0.662	0.714	0.921	
SK-MES-1	0.965	0.891	0.87	0.897	0.839	0.823	0.771	0.664	0.652	0.786	0.358	0.361	0.318	0.367	0.383					
NCI-H2342	0.698	0.679	0.775	0.713	0.745	0.49	0.432	0.463	0.425	0.418						0.456	0.459	0.403	0.438	0.526
SW 900	0.191	0.172	0.181	0.176	0.194	0.859		1.19	1.11	0.976							0.545	0.614	0.541	
HCC-366						0.511	0.328	0.423	0.312	0.292	0.0934	0.104	0.23	0.151	0.113	0.243	0.248	0.364	0.269	0.28
A549						0.467	0.28	0.324		0.371	0.488	0.455	0.452	0.489	0.456					
NCI-H661	0.901	0.936	1.01	0.924	0.877	0.798	0.735	0.807	0.801	0.589	0.29		0.431	0.473	0.371					
NCI-H1563	0.468	0.52	0.538	0.506	0.497						0.655	0.624	0.657	0.648	0.669					
